Measured values taken from patent US20090155349A1, “METHODS OF TREATING INFLUENZA VIRAL INFECTIONS” (priority 2006, published 2009).

Tests used:
[1] = test system: influenza virus A/WS/33; test: microbe, parasite or virus in culture; format: cell-based
[2] = test system: MDCK cells; test: Toxic effects in MDCK cells
[3] = test system: C3HA murine fibroblasts; test: TNF-α-induced apoptosis, Rhodamine 123 fluorescence; conditions: M4N 50 μM, TNF-α 20 ng/ml + cycloheximide 10 μg/ml, 6 hours
Procedure: C3HA murine fibroblasts were incubated with human recombinant TNF-α (20 ng/ml), cycloheximide (CHI) (10 μg/ml), or both, in the absence/presence of NDGA (25 μM) or M4N (50 μM). All compounds were added simultaneously and treatments were for 6 hours. Rhodamine 123 was added during the last half hour and fluorescence measured using a BMG POLARstar galaxy flourimeter.
More specifically, C3HA cells were cultured in Dulbecco's modified Eagles medium supplemented with 10% fetal bovine serum and maintained at 37° C. in 8% carbon dioxide. […] For apoptosis assays, cells were harvested by trypsinization, centrifuged, counted and 1.5×10^4 cells added to each well of a flat bottom 96 well microtiter plate in culture media. Cells were allowed to adhere at least six (6) hours prior to the addition to TNF (20 ng/ml), CHI (10 μg/milliliter), or both, in the absence/presence of nordihydroguaiaretic acid (25 μM) or M4N (50 μM). […] Both were dissolved in culture media. […] Rhodamine 123 is sequestered by energized mitochondria and live healthy cells display strong mitochondrial fluorescence. […] Fluorescence intensity was then determined using a BMG POLARstar galaxy microplate reader with excitation and emission wavelengths set at 492 and 538 nanometers, respectively. All points were performed in triplicate and percentage cell death was calculated from the following formula: […]

In the case of COc1ccc(C[C@@H](C)[C@@H](C)Cc2ccc(OC)c(OC)c2)cc1OC [M4N, meso-1,4-bis(3,4-dimethoxyphenyl)-2,3-dimethylbutane], the “inhibitory effect on virus titer (log plot)” value ([1]; EM-1421 25 μM, MDCK cells) is reported as “less than 1 log unit”, the inhibition at 25 µM ([1]; MDCK, 0.5 h, read-out: inhibition of A/WS/33 replication in MDCK cells) is reported as roughly 75% and the “highest concentration that could be used without causing toxic effects” value [2] is reported as 25 µM. The “inhibition of TNF-α-induced apoptosis” value [3] was “strongly inhibits”.
